Test results taken from patent publication US9603872B2, “Methods and compositions for mitochondrial replacement therapy” (The McLeon Hospital Corporation, priority 2007, dated 2017).
“And” between values parts separate entries of the source, which are not always exact repeats. Identical values can stand only once. “Also recorded” adds a separate entry of the source. Like-named read-outs stand apart in the source and are kept apart here.

Experiments:
control fibroblasts [1] = conditions: H2O2 treated
Description: (§1) Loss of red JC1 signal relative to monomeric green JC1 indicates collapse of mitochondrial membrane […] (Smiley et al., Proc. Natl. Acad. Sci. 88:3671-3675 (1991) and Cossarizza et al., Biochem. Biophys. Res. Comm. 197:40-45 (1993)).
ATP production was measured in cultured fibroblast lines using the Roche ATP Bioluminescence assay kit CLSII following the manufacturer's protocol (Roche Diagnostics, Mannheim, Germany). Briefly, cells were plated at a concentration of 2.5×10^5 cellsper 60 mm dish were used for each experiment and experiments were conducted two days later. Cell lysis was achieved by boiling in lysis solution ([…], 4 mM EDTA, pH=7.75) followed by incubation for 2 min at 100° C. The cells then were centrifuges spun at 1000×g for 1 min. The supernatants were used for total cell ATP determination. Samples were run in triplicate on a 96-well plate MLX luminometer (Dynex Technologies, Chantilly, Va., USA). Integration was delayed for 1 sec after the addition of luciferase and luminescence was measured for 10 seconds at an emission maximum of […]. Following ATP luminescence measurements, data was normalized to protein concentration as determined by the method of Bradford (Bradford DC assay, BioRad, Temecula, Calif., USA) to yield nanograms of ATP per mg of protein. Assays were performed in triplicate. […]

BD fibroblasts = assay: Mitochondrial membrane potential by JC-1 staining after metabolic stress; assay type: cell-based, human
From the text: as §1
(§2) The cationic fluorescent dye, JC-1 (5,5′,6,6′-tetrachloro-1,1′,3,3′-tetraethylbenzimidazolylcarbocyanine iodide) (Strategene, La Jolla, Calif. USA), was used to detect changes in mitochondrial membrane potential according to manufacturer's protocol. JC-1 reagent produces a red fluorescence (absorption/emission maxima=585/590 nm) after accumulation and aggregation in healthy, non-apoptotic cells with intact mitochondrial membrane potential and localizes to the cytoplasm as green with JC-1 monomers fluorescence (absorption/emission maxima=510/527 nm) in cells with compromised membrane potential. Briefly, cell lines were plated at a concentration of 2.5×10^4 on coverslips and were incubated with a 1:100 dilution of pre-warmed JC1 in growth media for 15 to 20 min at 37° C., 5% CO2. Cells were then rinsed once with assay buffer and mounted in PBS and analyzed immediately on a fluorescence microscopy. The coverslips were placed on standard microscopy slides and viewed immediately using a Zeiss Axiskop 2 epifluorescence microscope.
(§3) Fibroblasts (n=6) and lymphocytes (n=6) from patients with BD and age-matched controls (Fibroblasts, n=6; lymphocytes, n=6)) were exposed to hydrocortisone to induce mitochondrial stress (REFS). Hydrocortisone (Sigma H0888, St. Louis, Mo., USA) was dissolved in 50% ethanol/50% culture medium to yield a 40 mM stock solution. Hydrocortisone was then diluted to appropriate experimental concentrations (10 nM, 1 uM, 100 uM) with above described growth media. Confluent (85-95%) fibroblasts and lymphocytes (1×10^5 ? 1×10^6) were treated for 24 hr with hydrocortisone (sub-acute stress). Cells treated with vehicle (25% ethanol) alone served as controls. Following hydrocortisone treatment, fibroblasts were examined for alterations in mitochondrial morphology, membrane potential, and ATP levels, as described above. All experiments were performed in triplicate.
(§4) We also studied an equal number of fibroblast lines from BD and age-matched controls which were exposed to 100 μM hydrogen peroxide for 24 hrs (REFS). ATP levels were assayed as described above. Light microscopic analysis of JC1 to determine changes in mitochondrial membrane potential also were performed as previously described.

[2] = system: fibroblasts from BD patients; assay: Mitochondrial morphology by MitoTracker 7510 after metabolic stress; assay type: cell-based, human
Description: as §3, with “The fluorescent marker, MitoTracker-[…] Fibroblasts (n=6)” for “Fibroblasts (n=6)”, “in triplicate. […] ATP levels were assayed as described above.” for “in triplicate.”

control fibroblasts [3] = assay: as above; assay type: cell-based, human
Description: as §3, with “The fluorescent marker, MitoTracker-[…] Fibroblasts (n=6)” for “Fibroblasts (n=6)”, “in triplicate. […] ATP levels were assayed as described above.” for “in triplicate.”

[4] = system: fibroblasts from BD subjects; assay: ATP levels by bioluminescence (luciferase) assay after metabolic stress; assay type: cell-based, human
Description: as §1
ATP production was measured in cultured fibroblast lines using the Roche ATP Bioluminescence assay kit CLSII following the manufacturer's protocol (Roche Diagnostics, Mannheim, Germany). Briefly, cells were plated at a concentration of 2.5×10^5 cellsper 60 mm dish were used for each experiment and experiments were conducted two days later. Cell lysis was achieved by boiling in lysis solution ([…], 4 mM EDTA, pH=7.75) followed by incubation for 2 min at 100° C. The cells then were centrifuges spun at 1000×g for 1 min. The supernatants were used for total cell ATP determination. Samples were run in triplicate on a 96-well plate MLX luminometer (Dynex Technologies, Chantilly, Va., USA). Integration was delayed for 1 sec after the addition of luciferase and luminescence was measured for 10 seconds at an emission maximum of […]. Following ATP luminescence measurements, data was normalized to protein concentration as determined by the method of Bradford (Bradford DC assay, BioRad, Temecula, Calif., USA) to yield nanograms of ATP per mg of protein. Assays were performed in triplicate.
as §3, §4

[5] = system: Control fibroblasts and lymphocytes; conditions: 2 mM, 3 and 5 days, light microscopy
Description: Mood stabilizing drugs like lithium are commonly used as treatment for BD (Friedman et al., Biol. Psychiatr. 56:340-348 (2004) and Goodwin et al., JAMA 290:1467-1473 (2003)), and all but one of our subjects with BD was receiving lithium. […] Control fibroblasts and lymphocytes were treated with 2 mM lithium carbonate (LiCO3; approximately twice the average serum level of lithium in patients) for 3 and 5 days. Cells treated with a water vehicle only served as controls.
The fluorescent marker, MitoTracker-M7510 (Invitrogen, Carlsbad Calif.), was used to visualize mitochondria according to manufacturers instructions. Briefly, fibroblasts were plated at 2.5×10^4 and grown on coverslips, subsequently washed one time with pre-warmed growth media and incubated with M7510 at a final concentration of 250 nM in culture media at 37° C., 5% CO2 for 30 min. Cells were then washed once with culture media and fixed in 4% paraformaldehyde in 100 mM phosphate buffer pH 7.4 for 15 min. Following fixation, coverslips were rinsed two times in PBS and mounted in Gel Mount (Biomedia).

[6] = system: fibroblasts from healthy individuals; assay: Mitochondrial membrane potential by JC-1 staining after metabolic stress; assay type: cell-based, human; conditions: 100 μM HC, 24 hr
From the text: as §1, §2, §3, §4

[7] = HC treatment, BD and control fibroblasts, data not shown

## OO [H2O2, hydrogen peroxide]
Control fibroblasts [1]
  ATP compared to untreated control cells: no significant difference
Control fibroblasts [1]; method b169: normalized to nanograms of ATP per mg of protein
  ATP levels, mean: 9.9×10^−4
BD fibroblasts; 100 μM H2O2, 24 hrs
  JC1 staining (mitochondrial membrane integrity): severe loss of mitochondrial membrane integrity
[2]; 100 μM H2O2, 24 hrs
  mitochondrial morphology (MitoTracker 7510) vs untreated cells: almost complete loss of the mitochondrial network, mitochondrial clustering and dramatic mitochondrial fragmentation
Control fibroblasts [3]; 100 μM H2O2, 24 hrs
  mitochondrial morphology (MitoTracker 7510) vs untreated cells: a dispersed mitochondrial network with loss of elongated mitochondrial profiles, increased perinuclear clustering, and increased mitochondrial fragmentation; also recorded: dispersion of the mitochondrial network with loss of elongated mitochondrial profiles
[4]; H2O2 treated, p<0.001
  decrease in ATP levels compared to untreated BD fibroblasts: 83%
[4]; H2O2 treated, p<0.05
  decrease in ATP levels compared to control cells exposed to H2O2: 93%
[4]; H2O2 treated, method b169: normalized to nanograms of ATP per mg of protein
  ATP levels, mean: 6.2×10^−5 and 6.2×10^−4

## O=C([O-])[O-].[Li+].[Li+] [LiCO3, lithium carbonate]
[5]
  mitochondrial shape and distribution vs vehicle treated cells: no significant differences in mitochondrial shape and distribution
[5]; listed as lithium
  mitochondrial shape and distribution vs vehicle treated cells: could not be replicated

## C[C@]12CCC(=O)C=C1CC[C@@H]1[C@@H]2[C@@H](O)C[C@@]2(C)[C@H]1CC[C@]2(O)C(=O)CO [hydrocortisone]
BD fibroblasts; 100 μM HC, 24 hr
  JC1 staining (red aggregates vs green monomer): an even greater loss of red JC1 mitochondrial aggregates; also recorded: a loss of red JC1 mitochondrial aggregates in the majority of cells
BD fibroblasts; [7]
  ratiometric changes in JC1 after treatment: did not reach statistical significance
[6]
  JC-1 staining (red aggregates vs green monomer) vs untreated cells: loss of red mitochondrial aggregates in most cells; also recorded: loss of red mitochondrial aggregates
[2]; 100 μM HC, 24 hr
  mitochondrial morphology (MitoTracker 7510): perinuclear clustering like that seen in untreated cells but a greater degree of mitochondrial fragmentation
Control fibroblasts [3]; 100 μM HC, 24 hr
  mitochondrial morphology (MitoTracker 7510) vs untreated cells: some loss in the reticular pattern of mitochondria; also recorded: a slight loss in the reticular pattern of the mitochondrial network and greater frequency of perinuclear clustering
[4]; [7]
  differences in ATP levels after treatment: did not reach statistical significance
